Earlier results, collected in patent US7238375B1, “Composition and method to promote human hair growth” (priority 2004, dated 2007).

What was measured:
sheep = conditions: supplement in the diet of sheep
Type 1 5-alpha-reductase = target: T1, Type 1 5-alpha-reductase (Homo sapiens, UniProt P18405); conditions: application of copper ion to skin
T1 sequence (P18405 1-259): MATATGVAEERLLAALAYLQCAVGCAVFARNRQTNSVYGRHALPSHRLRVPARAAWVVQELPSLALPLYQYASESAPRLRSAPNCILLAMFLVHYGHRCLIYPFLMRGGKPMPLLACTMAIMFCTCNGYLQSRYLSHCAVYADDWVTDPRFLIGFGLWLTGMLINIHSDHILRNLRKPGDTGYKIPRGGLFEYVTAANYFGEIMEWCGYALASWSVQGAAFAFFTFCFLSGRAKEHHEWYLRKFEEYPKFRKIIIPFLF

Type 2 5-alpha-reductase = target: T2, Type 2 5-alpha-reductase (Homo sapiens, UniProt P31213); conditions: application of copper ion to skin
T2 sequence (P31213 1-254): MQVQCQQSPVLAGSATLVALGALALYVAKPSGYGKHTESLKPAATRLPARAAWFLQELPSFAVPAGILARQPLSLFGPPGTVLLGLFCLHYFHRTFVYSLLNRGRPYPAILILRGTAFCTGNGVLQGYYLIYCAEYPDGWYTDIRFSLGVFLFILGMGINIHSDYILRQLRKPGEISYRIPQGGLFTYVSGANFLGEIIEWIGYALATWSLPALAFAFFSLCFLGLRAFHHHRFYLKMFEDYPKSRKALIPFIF

SMILES | effect on wool growth patterns (sheep) | effect on hair shafts (rats) | concentration giving 50% reduction in activity of Type 1 5-alpha-reductase (Type 1 5-alpha-reductase) | IC50 (Type 1 5-alpha-reductase; read-out: concentration giving 50% reduction in activity of Type 1 5-alpha-reductase) [µM] | concentration giving 50% reduction in activity of Type 2 5-alpha-reductase (Type 2 5-alpha-reductase) | IC50 (Type 2 5-alpha-reductase; read-out: concentration giving 50% reduction in activity of Type 2 5-alpha-reductase) [µM]
N[C@@H](CS)C(=O)O [Cysteine] | significant modification in wool growth patterns | thicker hair shafts |  |  |  | 
[Cu+2] [Copper ion] |  |  | 0.12 micrograms copper ion per milliliter | 1.9 | 1.2 micrograms copper ion per milliliter | 10.2
